Assay results taken from patent US20120190648A1, “FLUORINATED CYCLOPROPANE ANALOGS OF GLUTAMIC ACID” (priority 2009, published 2012).
pEC50: −log10 of the molar value. Read-outs that look alike come from different tables or passages of the source.

Biological target: mGlu4 receptor (Rattus norvegicus, UniProt P31423)
Assay: mGlu4 receptor test at different doses (1 nM to 1 mM) to determine EC50
Assay type: cell-based
Experimental: The compounds according to the invention have been tested on the mGlu4 receptor at different doses (between 1 nM and 1 mM) in order to determine their EC50 value. This test has been carried out according to the protocol described in: C. Selvam, C. Goudet, N. Oueslati, J.-P. Pin, F. Acher J. Med. Chem. 2007, 50, 4656-4664.

Chain of mGlu4 receptor (P31423 33-912): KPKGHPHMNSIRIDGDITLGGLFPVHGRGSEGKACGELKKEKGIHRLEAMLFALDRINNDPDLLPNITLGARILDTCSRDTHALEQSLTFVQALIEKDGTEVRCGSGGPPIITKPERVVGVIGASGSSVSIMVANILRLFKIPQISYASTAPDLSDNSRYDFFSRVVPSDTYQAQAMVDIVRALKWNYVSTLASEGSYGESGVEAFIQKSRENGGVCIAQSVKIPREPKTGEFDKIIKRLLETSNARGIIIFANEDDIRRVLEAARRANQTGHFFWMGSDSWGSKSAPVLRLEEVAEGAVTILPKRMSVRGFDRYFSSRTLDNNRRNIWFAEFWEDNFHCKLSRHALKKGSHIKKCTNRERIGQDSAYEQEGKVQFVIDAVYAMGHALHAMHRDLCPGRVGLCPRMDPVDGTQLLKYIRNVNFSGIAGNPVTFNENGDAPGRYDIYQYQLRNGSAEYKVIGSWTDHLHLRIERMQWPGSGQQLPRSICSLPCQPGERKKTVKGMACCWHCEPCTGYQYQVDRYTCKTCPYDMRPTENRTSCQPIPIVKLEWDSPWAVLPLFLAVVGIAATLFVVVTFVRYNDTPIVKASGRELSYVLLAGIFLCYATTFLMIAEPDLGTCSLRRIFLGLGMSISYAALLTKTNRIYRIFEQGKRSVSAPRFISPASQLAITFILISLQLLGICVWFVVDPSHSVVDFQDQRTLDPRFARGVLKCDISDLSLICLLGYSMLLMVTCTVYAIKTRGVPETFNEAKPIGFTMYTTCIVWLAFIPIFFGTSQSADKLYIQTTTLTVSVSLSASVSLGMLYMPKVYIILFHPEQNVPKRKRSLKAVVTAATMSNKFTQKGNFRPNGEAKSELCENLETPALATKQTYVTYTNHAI

Structure (SMILES)	pEC50	pEC50 (mGlu4 receptor, doses between 1 nM and 1 mM, protocol of Selvam et al. J. Med. Chem. 2007, 50, 4656-4664, read-out: EC50)
N[C@]1(C(=O)O)C[C@@]1(F)C(O)P(=O)(O)O (mixture of isomers) [cis-I-3]	4.56	
NC1(C(=O)O)CC1(F)CP(=O)(O)O (racemic) [cis-I-4]	6.47	
NC1(C(=O)O)CC1(F)CS(=O)(=O)O (racemic) [cis-I-6]		4.07
